Patent US4092412A, “Treatment of herpes simplex infections” (Abbott Laboratories, priority 1977, dated 1978)

Tests used:
[1] = target: T1, Herpes simplex type 2 deoxyribonucleic acid (DNA) polymerase (Human herpesvirus 2, UniProt P89453); test: Viral DNA polymerase assay; type: biochemical, herpes simplex virus type 2; settings: 50% inhibition of herpes simplex type 2 DNA polymerase; read-out: Concentration (μg/ml) giving 50% Percent Inhibition (converted)
T1 construct: made in house; host or cells: Herpes virus infected Wi-38 cells (native viral enzyme, not recombinant; DEAE-cellulose and phosphocellulose chromatography)
T1 sequence (P89453 1-1240): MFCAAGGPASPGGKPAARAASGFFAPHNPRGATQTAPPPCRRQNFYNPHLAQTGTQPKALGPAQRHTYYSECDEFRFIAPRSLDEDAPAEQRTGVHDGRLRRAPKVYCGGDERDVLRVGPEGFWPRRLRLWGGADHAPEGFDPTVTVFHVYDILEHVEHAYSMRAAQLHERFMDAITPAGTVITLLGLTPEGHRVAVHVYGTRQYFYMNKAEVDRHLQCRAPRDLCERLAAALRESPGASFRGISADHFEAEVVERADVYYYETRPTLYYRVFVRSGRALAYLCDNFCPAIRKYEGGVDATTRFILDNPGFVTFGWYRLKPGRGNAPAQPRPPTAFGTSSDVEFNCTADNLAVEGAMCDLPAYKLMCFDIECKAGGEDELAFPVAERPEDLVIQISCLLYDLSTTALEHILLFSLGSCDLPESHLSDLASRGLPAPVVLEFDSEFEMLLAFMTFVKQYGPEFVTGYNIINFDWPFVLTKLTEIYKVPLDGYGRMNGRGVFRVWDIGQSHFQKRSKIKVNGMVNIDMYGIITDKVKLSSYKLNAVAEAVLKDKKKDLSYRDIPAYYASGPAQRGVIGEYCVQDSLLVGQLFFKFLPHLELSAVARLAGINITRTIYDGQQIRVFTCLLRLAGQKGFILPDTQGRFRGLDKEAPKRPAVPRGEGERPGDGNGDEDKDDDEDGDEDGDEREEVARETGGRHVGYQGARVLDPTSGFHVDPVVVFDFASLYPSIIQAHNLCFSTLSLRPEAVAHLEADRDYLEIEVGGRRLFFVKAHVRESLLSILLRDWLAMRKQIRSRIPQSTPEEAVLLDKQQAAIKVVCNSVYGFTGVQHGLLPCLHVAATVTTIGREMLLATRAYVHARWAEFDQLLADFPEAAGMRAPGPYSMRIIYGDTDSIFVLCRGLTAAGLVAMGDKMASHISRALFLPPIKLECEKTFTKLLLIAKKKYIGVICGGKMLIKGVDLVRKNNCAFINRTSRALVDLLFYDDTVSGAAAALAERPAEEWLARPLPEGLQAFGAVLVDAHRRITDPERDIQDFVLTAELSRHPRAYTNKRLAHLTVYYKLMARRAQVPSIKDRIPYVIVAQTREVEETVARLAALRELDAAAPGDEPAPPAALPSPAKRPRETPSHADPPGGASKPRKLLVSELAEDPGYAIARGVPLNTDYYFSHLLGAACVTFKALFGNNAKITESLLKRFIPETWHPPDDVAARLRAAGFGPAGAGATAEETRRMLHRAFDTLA
Procedure: Isolation and Purification of Herpes Simplex Type 2 Deoxyribonucleic Acid (DNA) Polymerase
The DNA polymerase was isolated according to the procedure of Smith and Gallo (1972) which involved column chromatography on DEAE-cellulose and phosphocellulose. However, buffer containing 20% glyceryl instead of 10% was used. The final enzyme preparation has a specific activity of 313 unit/mg. for herpes simplex virus type 2.
Viral Deoxyribonucleic Acid (DNA) Polymerase Assay
The reaction mixture (0.2 ml.) contains 10 μM of 2'-deoxyadenosine-5'-triphosphate, 2'-deoxycytidine-5'-triphosphate, 2'-deoxyguanosine-5'-triphosphate, and 2.5 μM tritium labeled thymidine-5'-triphosphate which was appropriately diluted with unlabeled dTTP to give 880 counts per minute per pico-mole, 10 μg of activated calf thymus DNA 50 mM Tris-HCl buffer (pH 8.0), 3mM MgCl2, 100 mM KCl and 1 mM dithiothritol. The amounts of enzyme used in each reaction was chosen to give a linear rate for at least 30 minutes at 37° C. The reaction was terminated by the addition of 3 ml. of cold 5% trichloroacetic acid - 0.01 M sodium pyrophosphate. The acid-insoluble material was collected, washed twice on glass filter discs (Reeve Angel 984-H) and the incorporated ^3 H-dTMP was determined by a liquid scintillation counter.

[2] = tested on: herpes simplex virus (HSV) type 1 or type 2; test: Antiviral activity by plaque reduction method; type: cell-based, herpes simplex virus (in rabbit kidney cells); set-up: key: 0 = inactive; +2 = moderate activity; +4 = very active; settings: rabbit kidney cells, plaques counted 3 to 4 days after infection
Procedure: Determination of Antiviral Activity by Plaque Reduction Method
The inhibitory effect of new compounds upon herpes simplex virus (HSV) type 1 or type 2 was analyzed by the plaque reduction assay. Confluent monolayers of rabbit kidney cells grown in 60 mm plastic petri dishes were infected with HSV by adsorption for 1 hour at room temperature. The appropriate concentration of the test compound was added at the time of initial virus infection. Following virus adsorption the cells were overlayed with Eagle's medium (BME) supplemented with 10% fetal bovine serum, 0.225% NaHCO3 and 0.5% methycellulose. The appropriate concentration of the test compound was also added to this overlay. Infected cultures were then incubated at 37° C. for the remainder of the test. Three to four days following virus infection, each culture was stained with crystal violet and the herpes virus induced plaques counted.

[3] = tested on: herpes simplex infections; test: Topical test against herpes simplex infections in CF mice; type: in vivo; settings: 10 mice per group, topical 2% aqueous solution, 11 applications, 14 day test
Procedure: The following test was applied to determine the effectiveness of the carboxylic esters of phosphonoacetic acid against herpes simplex infections in mice. The compounds tested included the compounds shown above as II and III. Also included were a standard virus control as well as a normal (no virus) control.
Herpes virus (10^7 TCID50 /ml) was applied topically (0.05 ml) to the denuded skin and impregnated into the dermis with a 24-gauge sterile hypodermic needle. In untreated animals, herpes lesions or vesicles usually develop in 3 to 5 days. The lesions form bands which extend over the denuded area. After approximately 10 days, mice usually develop a paralysis which results in their death. The test was allowed to continue for a total of 14 days.
Some of the animals were treated topically by having the drug applied to the site of infection as a 2% aqueous solution 2 hours after the virus was introduced into the skin, and twice daily for 5 consecutive days. The drug was applied a total of 11 times. A single application of a 2% drug solution delivered approximately 2 mg of material.
The Mann-Whitney "U" Test was used to statistically analyze the herpes infection in mice by making paired comparisons between the treated and untreated virus control groups. […]

| SMILES | IC50 [1] [µM] | Inhibition of plaques [2] | No. of Mice Dead [3] | No. of Mice Paralyzed [3] |
| --- | --- | --- | --- | --- |
| CCOC(=O)CP(=O)(O)O [Compound II, Ethyl Phosphonoacetate] | 23.2 | +4 | 3 | 2 |
| COC(=O)CP(=O)(O)O [Compound III, Methyl Phosphonoacetate] | 45.4 | +2 | 5 | 2 |
